Key:
CH strain houseflies = test: spray application of pyrethrum, percent knockdown as a function of time; format: in vivo; conditions: pyrethrum 100 + synergist 100 mg/cc
Description: The average percent knockdown of CH strain flies, as a function of time, resulting from spray application of pyrethrum, alone and with synergists, are given in Table XXXXIII. Duplicate tests were performed using 50 CH strain houseflies per test. Test solutions of 100 mg and 200mg of pyrethrum per cc of acetone, 200 mg of synergist per cc of acetone, and a mixture of 100 mg of pyrethrum and 100 mg of synergist per cc of acetone were prepared. The fifty CH strain houseflies were put in a 40 liter spray chamber and 1 cc of the test solution was sprayed into the test chamber with a spray pistol. The synergists alone at 200 mg/cc caused no knockdown.

houseflies = test: topical application with Diazinon, Table XXVII (strain not given); format: in vivo; conditions: for mortality at 10 µg/fly: Musca domestica, topical, 24 h, Diazinon 0, synergist 10 μg/fly, read-out: percent kill after 24 hours, synergist alone (Table XXVII)

| SMILES | average percent knockdown, pyrethrum with synergist (CH strain houseflies; 5 minutes) [%] | average percent knockdown, pyrethrum with synergist (CH strain houseflies; 10 minutes) [%] | average percent knockdown, pyrethrum with synergist (CH strain houseflies; 15 minutes) [%] | average percent knockdown, pyrethrum with synergist (CH strain houseflies; 20 minutes) [%] | average percent knockdown, pyrethrum with synergist (CH strain houseflies; 25 minutes) [%] | average percent knockdown, pyrethrum with synergist (CH strain houseflies; 30 minutes) [%] | average percent knockdown, pyrethrum with synergist (CH strain houseflies; 40 minutes) [%] | average percent knockdown, pyrethrum with synergist (CH strain houseflies; 50 minutes) [%] | average percent knockdown, pyrethrum with synergist (CH strain houseflies; 60 minutes) [%] | percent kill after 24 hours, with Diazinon (Table XXVII) (houseflies; Diazinon 5 + synergist 10 μg/fly) [%] | mortality at 10 µg/fly (houseflies) [%] |
| --- | --- | --- | --- | --- | --- | --- | --- | --- | --- | --- | --- |
| C#CCON=C(C)c1ccc(Cl)cc1 [I-D] | 6 | 15 | 26 | 39 | 52 | 60 | 86 | 87 | 88 | 100 | 0 |
| C#CCON=Cc1ccc(Cl)cc1Cl [I-G] | 7 | 12 | 31 | 36 | 59 | 66 | 89 | 93 | 94 | – | 0 |
| C#CCON=Cc1cccc2ccccc12 [I-I] | 4 | 7 | 19 | 29 | 40 | 49 | 57 | 86 | 92 | – | 0 |
| C#CCOCc1c(Cl)ccc(Cl)c1Cl [II-E] | 5 | 9 | 17 | 44 | 55 | 59 | 77 | 93 | 95 | – | – |
